Results published in patent US20200239412A1, “NEW DERIVATES OF DHAA WITH ELECTROSTATIC TUNING” (priority 2017, published 2020).
Several values for one entry are separate records, joined by “and”; a condition that tells them apart may be missing. Equal values may be shown once. Where a name gives a salt, the structure may show the parent alone. Read-outs that look alike come from different tables or passages of the source.

Legend:
[1] = biological target: T1, 3R Shaker Kv channel (M356R/A359R) (Drosophila melanogaster, UniProt P08510, A359R/DEL6-46/M356R); assay: in vitro; format: cell-based; details: for pKa at 100 μM: Drosophila, functional pH dependence, read-out: Functional pKa (pH where half of the maximum G(V) shift was achieved); for G(V) shift: mean
T1 sequence (P08510 other isoform, or with tags, fused parts or gaps DEL6-46/M356R/A359R): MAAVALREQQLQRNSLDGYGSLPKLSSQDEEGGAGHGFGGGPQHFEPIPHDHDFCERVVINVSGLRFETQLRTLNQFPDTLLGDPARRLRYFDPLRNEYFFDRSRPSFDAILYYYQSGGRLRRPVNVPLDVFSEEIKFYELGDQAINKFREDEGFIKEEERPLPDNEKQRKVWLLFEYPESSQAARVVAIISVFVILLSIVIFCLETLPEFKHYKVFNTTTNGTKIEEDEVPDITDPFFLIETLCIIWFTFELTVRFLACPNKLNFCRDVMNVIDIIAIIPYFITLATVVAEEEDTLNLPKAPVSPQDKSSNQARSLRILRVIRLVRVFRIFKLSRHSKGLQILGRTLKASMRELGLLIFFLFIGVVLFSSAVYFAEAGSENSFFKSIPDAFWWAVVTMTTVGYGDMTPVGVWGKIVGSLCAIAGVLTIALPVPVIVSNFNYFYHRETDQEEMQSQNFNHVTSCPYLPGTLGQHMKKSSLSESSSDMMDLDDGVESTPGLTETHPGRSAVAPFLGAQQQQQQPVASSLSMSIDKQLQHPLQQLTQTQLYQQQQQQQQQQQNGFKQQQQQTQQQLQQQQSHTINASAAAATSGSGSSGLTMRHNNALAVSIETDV
From the text: (§1) Experiments were made with the Shaker H4 channel incapable of fast N-type inactivation due to a Δ6-46 deletion, referred to as the wt Shaker Kv channel. The 3R Shaker Kv channel with two additional positively charged arginines (M356R/A359R) in the extracellular end of S4, was also used.
(§2) For the Shaker channels, Bluescript II KS(+) plasmid was linearized with HindIII and synthesis of cRNA were made with the T7 mMessage mMachine kit (Ambion, Austin, Tex.). Point mutations around S4, on the Shaker Kv channel, were introduced using QuickChange Site-Directed Mutagenesis Kit (Agilent Technologies, Santa Clara, Calif.) and sequencing were used for verification.
(§3) 50 nl cRNA was injected into Xenopus laevis oocytes using a Nanoject injector (Drummond Scientific, Broomall, Pa.) and the oocytes were stored at 8° C. in a modified Barth's solution (MBS) before experiments (16° C., M-channel, 1-2 days). The MBS contained (in mM): 88 NaCl, 1 KCl, 2.4 NaHCO3, 15 HEPES, 0.33 Ca(NO3)2, 0.41 CaCl2), and 0.82 MgSO4, pH was adjusted to 7.5 by NaOH and the MBS was supplemented sodium pyruvate (2.5 mM). All animal experiments were approved by the Linkoping's local Animal Care and Use Committee.
(§4) Currents were measured 1-6 days after cRNA injection using the two-electrode voltage clamp technique (GeneClamp 500B amplifier, Axon instruments). Signals were low pass filtered at 5 kHz and digitized by a Digidata 1440A converter (Molecular Devices, Sunnyvale, Calif.). The amplifiers leak compensation was used and Clampex 10.2 software (Molecular Devices) was used to obtain data and create voltage protocols. The extracellular control solution contained (in mM): 1 KCl, 88 NaCl, 0.8 MgCl2, 0.4 CaCl2) and 15 HEPES. pH were adjusted with NaOH. Electrode pipettes were made from borosilicate glass capillaries (Harvard apparatus, Kent, UK) using a two stage electrode puller (Narishige, Tokyo, Japan) and resistance was between 0.5-2.0 MO once filled with 3 M KCl solution. In the voltage protocol for the wt and 3R Shaker channel, holding potential was set to −80 mV and steady-state currents were measured at voltages between −80 and +50 mV (wt Shaker Kv channel) or +70 mV (3R Shaker Kv channel), using 5 mV increments, 100 ms. […] Physiol. 143, 173-182 (2014). For the M-channel, holding potential was set to −100 mV, test-voltages were measured between −120 and +50 mV (10 mV increments for 2 s) and tail currents were measured at −30 mV.
(§5) Control solution was perfused to the recording chamber (0.5 ml/min) and the test solution was added manually with a syringe, in a volume large enough to replace the control solution manifold. Resin acids compounds were dissolved in DMSO (100 mM) and stored at −20° C. Just prior to experiment the compound was diluted to desired concentration in control solution. Recovery was measured after continuously perfusion of control solution, maximum 5 min. All recordings were made with the perfusion off. Experiments were carried out in room temperature (20-23° C.) and chemicals were purchased from Sigma Aldrich if not stated otherwise.
(§6) Currents were leak subtracted and steady-state currents were measured 80-86 ms after onset of the test voltages (Clampfit 10.5, Molecular Devices). K conductance, GK, was calculated using,
(§7) where IK is the steady-state current, V the absolute membrane voltage and VK the reversal potential for K ions (−80 mV), and the following Boltzmann curve was used to fit the data:
(§8) GK(V)=A/(1+exp((V1/2−V)/s)^n (2)
(§9) where A is the amplitude of the curve, V1/2 the midpoint when n=1, s the slope and n an exponent for better curve fitting, set to n=4. The voltage shift was calculated at 10% of maximal conductance in control curve.
(§10) To quantify the concentration dependence or pH dependence of the GK(V) shifts the following equation was used:
(§11) ΔVG(V)=ΔVMAX/(1+c1/2/c), (3)

[2] = biological target: T1, 3R Shaker Kv channel (M356R/A359R); details: cited from earlier work
[3] = biological target: wt Shaker Kv channel (Shaker H4, Δ6-46) (Drosophila melanogaster, UniProt P08510, DEL6-46); assay: Two-electrode voltage clamp, G(V) shift on wt Shaker Kv channel expressed in Xenopus laevis oocytes; format: cell-based
wt Shaker Kv channel (Shaker H4, Δ6-46), sequence (P08510 other isoform, or with tags, fused parts or gaps DEL6-46): as the sequence (P08510 other isoform, or with tags, fused parts or gaps DEL6-46/M356R/A359R) above, with R315M, R318A counted along it
From the text: as §1, §2, §3, §4, §5, §6, §7, §8, §9, §10, §11

hKv7.2/Kv7.3 (M-channel) = biological target: T2, hKv7.2/Kv7.3 (M-channel) (Homo sapiens, UniProt O43525+O43526); assay: Two-electrode voltage clamp, G(V) shift on human M-channel expressed in Xenopus laevis oocytes; format: cell-based
T2 construct: expressed in transfected cells; host or cells: Xenopus laevis oocytes (cRNAs mixed 1:1)
Description: Experiments were also made with the human hKv7.2/Kv7.3, referred to as the M-channel. cRNAs were mixed in a 1:1 molar ratio before injection into oocytes. hKv7.2 [GenBank Acc. No. NM_004518]. hKv7.3 [GenBank Acc. No NM_004519].
as §3, §4, §5
For the M channel tail currents were measured 18 ms after onset and then plotted against the test voltage. The Boltzmann curve (Eq. 2) was used to fit data and the slope was set to shared value between control and test compound. V1/2 was used to calculate the GK(V) shift.
as §10, §11
where ΔVG(v) is the voltage shift, ΔVMAX is the amplitude of the curve, c the concentration, c1/2 the concentration at which half maximum response occur. For compounds with no pH dependence the data was fitted with a horizontal line, with the slope set to 0.

R362Q Shaker Kv channel = R362Q Shaker Kv channel (Drosophila melanogaster, UniProt P08510, DEL6-46/R362Q); assay: G(V) shift on Shaker Kv channel S4 mutant R362Q compared with wt R362; format: cell-based; details: 100 μM, pH 7.4, FIG. 9D
R362Q Shaker Kv channel, sequence (P08510 other isoform, or with tags, fused parts or gaps DEL6-46/R362Q): as the sequence (P08510 other isoform, or with tags, fused parts or gaps DEL6-46/M356R/A359R) above, with R315M, R318A, R321Q counted along it
Description: as §2
Currents were measured 1-6 days after cRNA injection using the two-electrode voltage clamp technique (GeneClamp 500B amplifier, Axon instruments). Signals were low pass filtered at 5 kHz and digitized by a Digidata 1440A converter (Molecular Devices, Sunnyvale, Calif.). The amplifiers leak compensation was used and Clampex 10.2 software (Molecular Devices) was used to obtain data and create voltage protocols. The extracellular control solution contained (in mM): 1 KCl, 88 NaCl, 0.8 MgCl2, 0.4 CaCl2) and 15 HEPES. pH were adjusted with NaOH. […] In the voltage protocol for the wt and 3R Shaker channel, holding potential was set to −80 mV and steady-state currents were measured at voltages between −80 and +50 mV (wt Shaker Kv channel) or +70 mV (3R Shaker Kv channel), using 5 mV increments, 100 ms. […] For the M-channel, holding potential was set to −100 mV, test-voltages were measured between −120 and +50 mV (10 mV increments for 2 s) and tail currents were measured at −30 mV. […]

[4] = pH 7.4, concentration-response of G(V) shift, read-out: c1/2 (half-maximal concentration)

Compound: CC(C)c1ccc2c(c1)CC[C@H]1[C@](C)(C(=O)O)CCC[C@]21C [DHAA, dehydroabietic acid]
- pKa at 100 μM [1]: 7.2
- EC50 ([2]; pH 7.4, data from Ottosson et al. Sci. Rep. 5, 13278 (2015), read-out: c1/2 (half-maximal concentration)): 98 µM

Compound: C[C@@]1(C(=O)O)CCC[C@]2(C)c3cc(Cl)c(Cl)c(Cl)c3CCC12 (some centres unmarked) [Wu50, reference compound]
- Increase of affinity compared to DHAA (factor) ([1]; pH 7.4): 2.7
- Increase of amplitude/efficacy compared to DHAA (factor) ([1]; pH 7.4): 1.7
- EC50 ([2]; read-out: c1/2 (half-maximal concentration), pH 7.4, data from Ottosson et al. Sci. Rep. 5, 13278 (2015)): 37 µM and 36 µM

Compound: CC(C)c1ccc2c(c1)CC[C@H]1[C@](C)(COS(=O)(=O)O)CCC[C@]21C [Wu161, ((1R,4aS,10aR)-7-isopropyl-1,4a-dimethyl-1,2,3,4,4a,9,10,10a-octahydrophenanthren-1-yl)methyl Hydrogen Sulfate]
- EC50 [1, 4]: 36 µM and 37 µM
- EC50 [3, 4]: 44 µM
- EC50 (hKv7.2/Kv7.3 (M-channel); concentration-response of G(V) shift, read-out: c1/2 (half-maximal concentration)): 41.8 µM and 42 µM
- Effect on R362Q compared with wt R362 (R362Q Shaker Kv channel): about the same effects

Compound: CC(C)c1ccc2c(c1)CCC1[C@](C)(CCC(=O)O)CCC[C@]21C (stereo partly drawn) [Wu179, 3-((1S,4aS)-7-isopropyl-1,4a-dimethyl-1,2,3,4,4a,9,10,10a-octahydrophenanthren-1-yl)propanoic Acid]
- pKa at 100 μM [1]: 7.5
- G(V) shift ([1]; pH 5.5, 100 μM): 2.80 mV
- G(V) shift ([1]; pH 6.5, 100 μM): −3.23 mV
- G(V) shift ([1]; pH 7.4, 100 μM): −10.43 mV
- G(V) shift ([1]; pH 9, 100 μM): −16.63 mV
- G(V) shift ([1]; pH 10, 100 μM): −22.83 mV
- G(V) shift ([3]; pH 10, 100 μM, mean): −3.83 mV
- G(V) shift (hKv7.2/Kv7.3 (M-channel); pH 7.4, 100 μM, mean): −6.68 mV
